Data taken from patent publication US20080069827A1, “miRNA of HSV-LAT and uses thereof” (priority 2006, published 2008).

Assays:
Type in all cases: cell-based
SY5Y cells = assay: Apoptosis assay (AnnexinV FITC staining after cisplatin or etoposide) in SY5Y cells; settings: cisplatin 24 h post transfection, compared to control
Protocol: (§1) 24 hours post-transfection cells were treated with cisplatin (10 µM) or etoposide (1-100 μM), followed by staining with AnnexinV FITC (BD Biosciences). Cells showing FITC staining, loss of cell volume, loss of refractility, and membrane blebbing were scored as apoptotic. At least 500 cells were counted in each well.
(§2) 24 hours post-transfection cells were treated with cisplatin (10 μM) or etoposide ([…]), followed by staining with AnnexinV FITC (BD Biosciences). Cells showing FITC staining, loss of cell volume, loss of refractility, and membrane blebbing were scored as apoptotic. At least 500 cells were counted in each well. The data represent mean±S.D. from at least three independent experiments.

SMAD-3 = SMAD-3 expression (RT-PCR, Western blot); settings: SY5Y cells
Protocol: (§3) RNA was isolated using Trizol reagent (Invitrogen). RNA was reverse transcribed using Superscript II RT enzyme (Invitrogen). Northern blot analysis of 50-60 μg total RNA was done as described previously. Western blot analysis was performed on whole cell lysates using Dicer polyclonal antibody and β-actin antibody (Amersham). SMAD-3 and TGF-β receptor I antibodies were from Abcam.
(§4) RNA was isolated using Trizol reagent according to the manufacturer's instruction. RNA was reverse transcribed using Superscript II RT enzyme (Invitrogen). Dicer, TGF-β 1, SMAD-3, TGF-β receptor I and GAPDH cDNA were amplified using gene specific primers. Northern blot analysis of 50-60 μg total RNA was done. Radioactive probes were generated using Starfire oligonucleotide labeling system (IDT). Western blot analysis was performed on whole cell lysates using Dicer polyclonal antibody, a kind gift from Dr Ramin Shiekhattar, Wistar Institute, Philadelphia, USA and β-actin antibody (Amersham). SMAD-3 and TGF-β receptor I antibodies were from Abcam. […] Synthetic RNA molecule corresponding to the mirLAT pre-miRNA (Dhramacon) was radiolabelled by polynucleotide kinase reaction (Invitrogen), column purified and incubated with 2 U Recombinant Dicer enzyme (Stratagene) at 37° C. for 16 hours and analyzed by gel electrophoresis and exposure to a phosphor imager screen.

TGF-β = TGF-β expression (RT-PCR, latent TGF-β1 ELISpot); settings: SY5Y cells
Protocol: as §3, §4

HeLa cells = assay: Apoptosis assay (AnnexinV FITC staining after cisplatin or etoposide) in HeLa cells; settings: cisplatin 24 h post transfection, compared to control miRNA
Protocol: as §1, §2

3′UTR of TGF-β = assay: Renilla luciferase reporter with 3′UTR / mirLAT target site of TGF-β in SY5Y cells
Protocol: (§5) Cells were co-transfected with pCDNA or PstMlu (1 μg) and the respective reporter constructs (500 ng) along with pSV-βgal (10 ng). For induction of TGF-p signaling, 24 h following transfection the cells were treated with 10 ng/ml of recombinant TGF-β1 protein (R&D systems). Reporter activity was measured using a appropriate assay kits (promega).
(§6) SY5Y cells were maintained in RPMI medium with 10% fetal calf serum and antibiotics. HeLa cells were grown in DMEM medium supplemented with 5% fetal calf serum and antibiotics. Plasmids having the PstMlu fragment of LAT and its deletion mutant ΔSty have been described. GFP-shRNA pSilencer plasmid was a kind gift from Dr Kuan-Teh Jeang, NIH, USA. The SBE4-Luc construct was a kind gift from Dr Anita Roberts, NIH, USA. The pGL3-control and pSV-βgal plasmids were obtained from Promega. The pRL-TK vector was obtained from Dr Zissimos Mourelatos, University of Pennsylvannia, USA. […] Recombinants were scored for reversion of deletion in ΔSty resulting in virus which is genetically similar to wild type virus. […]
(§7) Cells were co-transfected with pCDNA or PstMlu (1 μg) and the respective reporter constructs (500 ng) along with pSV-βgal (100 ng). […] Luciferase activity was measured using a renilla or firefly Luciferase assay kit (promega). β-galactosidase activity was determined in all lysates (promega) according to manufacturer's instructions. […]

3′UTR of SMAD-3 = assay: Renilla luciferase reporter with 3′UTR / mirLAT target site of SMAD-3 in SY5Y cells
Protocol: as §5, §6, §7

[1] = system: TGF-β/SMAD-dependent transcription; assay: SBE4-Luc TGF-β responsive reporter assay in SY5Y cells; settings: 10 ng/ml recombinant TGF-β1
Protocol: as §5
Cells were co-transfected with pCDNA or PstMlu (1 μg) and the respective reporter constructs (500 ng) along with pSV-βgal (100 ng). For induction of TGF-β signaling, 24 h following transfection the cells were treated with 10 ng/ml of recombinant TGF-β 1 protein (R&D systems) for 12-16 hours at 37° C. in serum free media. Cells were lysed using the reporter lysis buffer (promega). Luciferase activity was measured using a renilla or firefly Luciferase assay kit (promega). β-galactosidase activity was determined in all lysates (promega) according to manufacturer's instructions. The Luciferase activity in all samples was normalized to the amount of β-galactosidase activity.

[2] = mutant target site that disrupts mirLAT binding
[3] = single copy of wild-type mirLAT target site

| Substance | cisplatin-induced apoptosis (percentage apoptosis) (SY5Y cells) | mRNA levels / expression of SMAD-3 (SMAD-3) | mRNA levels / expression of TGF-β (TGF-β) | cisplatin-induced apoptosis (percentage apoptosis) (HeLa cells) | luciferase activity, mutant TGF-β target site construct (3′UTR of TGF-β; [2]) | reduction in luciferase activity, wild-type TGF-β target site construct (3′UTR of TGF-β; [3]) | luciferase activity, mutant SMAD-3 target site construct (3′UTR of SMAD-3; [2]) | reduction in luciferase activity, wild-type SMAD-3 target site construct (3′UTR of SMAD-3; [3]) | TGF-β mediated induction of SBE4-Luc reporter [1] |
| --- | --- | --- | --- | --- | --- | --- | --- | --- | --- |
| GCACAUAAUAACUUGGACCTT (chemistry not given here) [SMAD-3 siRNA, siRNA directed against SMAD-3 (Ambion)] | confers resistance to apoptosis | inhibited | – | – | – | – | – | – | – |
| CCAACUAUUGCUUCAGCUCTT (chemistry not given here) [TGF-β siRNA, siRNA directed against TGF-β (Ambion)] | confers resistance to apoptosis | – | inhibited | – | – | – | – | – | – |
| 5′-GUGGCGGCCCGGCCCGGGGCCTT-3′ [mirLAT] | significant reduction in apoptosis | – | – | significant reduction in apoptosis | does not show any significant decrease in luciferase activity | up to 90% | does not show any significant decrease in luciferase activity | up to 90% | significant reduction in TGF-β mediated induction |
